Measurements: US20200060276A1, “THIAZOLE COMPOUND AND HERBICIDE” (OAT Agrio Co., Ltd., priority 2017, published 2020)

How the values were obtained:
Assay type in all cases: in vivo
[1] = system: Cyperus microiria; test: Test for Herbicidal Effect in Flooding Treatment (#1), CYMIC; settings: flooding treatment at seeding, dose 2 kg/ha, visual observation on day 21
Method in brief: (§1)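 Flooded soil in cups was seeded 24 h after flooding, then treated with compound in acetone diluted with Tween 80-containing water, dropped onto the water surface at 2 kg/ha. After growth in a glasshouse, growth inhibition was scored visually on day 21 on a 0 (<10%) to 5 (≥90% or complete withering) scale.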

[2] = system: Monochoria vaginalis; test: Test for Herbicidal Effect in Flooding Treatment (#1), MONVA; settings: flooding treatment at seeding, dose 2 kg/ha, visual observation on day 21
Method in brief: as §1

[3] = system: Scirpus juncoides; test: Test for Herbicidal Effect in Flooding Treatment (#1), SCIJU; settings: flooding treatment at seeding, dose 2 kg/ha, visual observation on day 21
Method in brief: as §1

[4] = system: Echinochloa crus-galli (L.) P. Beauv. var. formosensis Ohwi; test: Test for Herbicidal Effect in Flooding Treatment (#1), ECHDG; settings: flooding treatment at seeding, dose 2 kg/ha, visual observation on day 21
Method in brief: as §1

[5] = system: Echinochloa crus-galli (L.) P. Beauv. var. formosensis Ohwi; test: Test for Herbicidal Effect in Flooding Treatment (#2), ECHDG at 2-2.5 leaf stage; settings: flooding treatment at 2-2.5 leaf stage, dose 0.2 kg/ha, visual observation on day 21
Method in brief: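 Scoring is a visual 0–5 scale of growth inhibition (0 below 10%, 5 at 90% or more or full withering), taken 21 days after treatment in a glasshouse. Dose was 0.2 kg/ha, applied as acetone/Tween 80 aqueous solution onto flooded soil once seedlings reached the 2–2.5 leaf stage.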

Compound	CYMIC #1 herbicidal effect (growth inhibition grade) [1]	MONVA #1 herbicidal effect (growth inhibition grade) [2]	SCIJU #1 herbicidal effect (growth inhibition grade) [3]	ECHDG #1 herbicidal effect (growth inhibition grade) [4]	ECHDG (2-2.5L) #2 herbicidal effect (growth inhibition grade) [5]
CCOc1c(C)cccc1CS(=O)(=O)c1ncc(Cl)s1 [Compound 1C-11]	5 (Growth inhibition effect is equal to or greater than 90%, or complete withering is achieved)	5 (Growth inhibition effect is equal to or greater than 90%, or complete withering is achieved)	5 (Growth inhibition effect is equal to or greater than 90%, or complete withering is achieved)	5 (Growth inhibition effect is equal to or greater than 90%, or complete withering is achieved)	5 (Growth inhibition effect is equal to or greater than 90%, or complete withering is achieved)
CCOc1cccc(CS(=O)(=O)c2ncc(Cl)s2)c1F [Compound 1C-75]	5 (Growth inhibition effect is equal to or greater than 90%, or complete withering is achieved)	5 (Growth inhibition effect is equal to or greater than 90%, or complete withering is achieved)	5 (Growth inhibition effect is equal to or greater than 90%, or complete withering is achieved)	5 (Growth inhibition effect is equal to or greater than 90%, or complete withering is achieved)	4 (Growth inhibition effect is equal to or greater than 70%, and less than 90%)
COc1ccc(F)c(CS(=O)(=O)c2ncc(Cl)s2)c1 [Compound 1C-69]	5 (Growth inhibition effect is equal to or greater than 90%, or complete withering is achieved)	5 (Growth inhibition effect is equal to or greater than 90%, or complete withering is achieved)	5 (Growth inhibition effect is equal to or greater than 90%, or complete withering is achieved)	5 (Growth inhibition effect is equal to or greater than 90%, or complete withering is achieved)	4 (Growth inhibition effect is equal to or greater than 70%, and less than 90%)
CCOc1cc(CS(=O)(=O)c2ncc(Cl)s2)cc(C(F)(F)F)c1 [Compound 1C-79]	5 (Growth inhibition effect is equal to or greater than 90%, or complete withering is achieved)	5 (Growth inhibition effect is equal to or greater than 90%, or complete withering is achieved)	5 (Growth inhibition effect is equal to or greater than 90%, or complete withering is achieved)	5 (Growth inhibition effect is equal to or greater than 90%, or complete withering is achieved)	2 (Growth inhibition effect is equal to or greater than 30%, and less than 50%)
CCOc1c(C)cc(F)cc1CS(=O)(=O)c1ncc(Cl)s1 [Compound 1C-25]	5 (Growth inhibition effect is equal to or greater than 90%, or complete withering is achieved)	5 (Growth inhibition effect is equal to or greater than 90%, or complete withering is achieved)	5 (Growth inhibition effect is equal to or greater than 90%, or complete withering is achieved)	5 (Growth inhibition effect is equal to or greater than 90%, or complete withering is achieved)	5 (Growth inhibition effect is equal to or greater than 90%, or complete withering is achieved)
